We go through twelve molecules from publication PMC12277872, “Design, Synthesis, In Vitro, and In Silico Studies of 5‐(Diethylamino)‐2‐Formylphenyl Naphthalene‐2‐Sulfonate Based Thiosemicarbazones as Potent Anti‐Alzheimer Agents” (Archiv Der Pharmazie, 2025).

Assay [1] has as its target T1, AChE from Electrophorus electricus (electric eel) (Electrophorus electricus, UniProt O42275).
T1 construct: purchased Sigma Aldrich C3389
The experiment in a line: biochemical. The conditions noted are these: for IC50: AChI substrate, DTNB, 412 nm, Tris/HCl pH 8.0; for Ki: read-out: K i (nM) AChE. The protocol: Both […] (AChI) and butyrylcholine iodide (BChI) were used as substrates for the enzymatic hydrolysis reactions, with 5,5′‐dithiobis(2‐nitrobenzoic acid) (DTNB) serving as a common reagent for detecting the activities of AChE and BChE. The assay was conducted: 1 mL of 1.0 M Tris/HCl buffer (pH 8.0) was mixed with 10 μL of the sample solution in deionized water. To this mixture, 50 μL of AChE or BChE enzyme solution was added, and the reaction was incubated at room temperature for 10 min. After incubation, 50 μL of DTNB (0.5 mM) was introduced, followed by the addition of 50 μL of either AChI or BChI (10 mM), initiating the enzymatic reaction. […] This color change is due to the reaction of DTNB with thiocholine released during the hydrolysis of AChI or BChI. For every inhibitor that was utilized, IC50 and K i values were determined. In this study, C7512‐ BChE from equine serum and C3389‐ AChE from Electrophorus electricus (electric eel) were purchased from Sigma Aldrich.

Assay [2] concerns the target T2, hMAO‐B (Homo sapiens, UniProt P27338).
T2 construct: purchased Sigma Aldrich M7441
T2 sequence (P27338 1-520): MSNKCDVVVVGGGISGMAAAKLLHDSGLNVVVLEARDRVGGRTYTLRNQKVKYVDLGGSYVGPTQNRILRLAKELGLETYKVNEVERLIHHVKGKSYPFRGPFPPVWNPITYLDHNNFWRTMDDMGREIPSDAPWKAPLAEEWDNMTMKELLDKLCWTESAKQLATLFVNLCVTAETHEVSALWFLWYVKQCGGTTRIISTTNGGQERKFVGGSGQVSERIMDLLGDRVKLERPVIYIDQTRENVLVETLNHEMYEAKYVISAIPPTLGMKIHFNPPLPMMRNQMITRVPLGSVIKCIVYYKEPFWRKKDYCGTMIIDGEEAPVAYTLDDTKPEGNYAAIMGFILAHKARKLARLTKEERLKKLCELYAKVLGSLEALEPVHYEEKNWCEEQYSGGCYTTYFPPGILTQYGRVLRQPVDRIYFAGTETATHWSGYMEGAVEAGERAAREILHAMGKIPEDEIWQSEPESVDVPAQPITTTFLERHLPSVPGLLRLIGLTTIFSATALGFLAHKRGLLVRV
Briefly: In vitro fluorometric MAO-B inhibition assay (tyramine substrate, horseradish peroxidase coupling). The format is biochemical. As to the method:
(§1) The in vitro fluorometric technique was used to assess each newly generated substance's inhibitory activity against hMAO‐A and hMAO‐B. In a horseradish peroxidase coupling reaction, the oxired reagent (10‐acetyl‐3,7‐dihydroxyphenoxazine) detects H2O2, a result of the oxidative deamination of tyramine, which is utilized as an MAO substrate. The test was carried out in two steps. First, each compound's concentrations of 10^–3 and 10^–4 M were investigated. […] These parameters of this study were made as in previous studies. We purchased these two enzymes from Sigma Aldrich (M7316‐Monoamine Oxidase A human and M7441‐ […]).

The target of assay [3] is T3, BChE from equine serum (Equus caballus, UniProt P81908).
T3 construct: C7512‐ BChE from equine serum; purchased Sigma Aldrich C7512; host or cells: equine serum
T3 sequence (P81908 whole entry): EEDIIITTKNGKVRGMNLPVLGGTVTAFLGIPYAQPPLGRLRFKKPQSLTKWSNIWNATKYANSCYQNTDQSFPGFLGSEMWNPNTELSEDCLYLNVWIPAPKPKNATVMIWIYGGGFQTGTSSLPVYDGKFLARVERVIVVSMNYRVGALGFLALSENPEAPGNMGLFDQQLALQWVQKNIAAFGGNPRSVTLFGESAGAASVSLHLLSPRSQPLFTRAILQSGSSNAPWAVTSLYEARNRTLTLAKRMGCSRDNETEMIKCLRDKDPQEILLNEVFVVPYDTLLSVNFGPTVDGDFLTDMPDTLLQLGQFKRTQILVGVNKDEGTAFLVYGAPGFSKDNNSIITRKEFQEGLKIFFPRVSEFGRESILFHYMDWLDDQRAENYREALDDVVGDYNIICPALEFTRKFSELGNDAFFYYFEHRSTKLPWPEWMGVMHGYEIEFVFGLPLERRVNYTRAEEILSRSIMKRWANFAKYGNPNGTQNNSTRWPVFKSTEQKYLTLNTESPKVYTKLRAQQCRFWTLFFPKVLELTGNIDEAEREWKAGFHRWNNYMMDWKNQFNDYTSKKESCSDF
The experiment in a line: biochemical. The conditions noted are these: for IC50: BChI substrate, DTNB, 412 nm, Tris/HCl pH 8.0; for Ki: read-out: K i (nM) BChE. As to the method: Both […] (AChI) and butyrylcholine iodide (BChI) were used as substrates for the enzymatic hydrolysis reactions, with 5,5′‐dithiobis(2‐nitrobenzoic acid) (DTNB) serving as a common reagent for detecting the activities of AChE and BChE. The assay was conducted: 1 mL of 1.0 M Tris/HCl buffer (pH 8.0) was mixed with 10 μL of the sample solution in deionized water. To this mixture, 50 μL of AChE or BChE enzyme solution was added, and the reaction was incubated at room temperature for 10 min. After incubation, 50 μL of DTNB (0.5 mM) was introduced, followed by the addition of 50 μL of either AChI or BChI (10 mM), initiating the enzymatic reaction. The hydrolysis of the substrates was monitored spectrophotometrically by measuring the absorbance at 412 nm, corresponding to the formation of the yellow‐colored 5‐thio‐2‐nitrobenzoate anion. This color change is due to the reaction of DTNB with thiocholine released during the hydrolysis of AChI or BChI. For every inhibitor that was utilized, IC50 and K i values were determined. In this study, C7512‐ BChE from equine serum and C3389‐ AChE from Electrophorus electricus (electric eel) were purchased from Sigma Aldrich.

Assay [4] has as its target T4, hMAO‐A (Homo sapiens, UniProt P21397).
T4 construct: purchased Sigma Aldrich M7316
T4 sequence (P21397 1-527): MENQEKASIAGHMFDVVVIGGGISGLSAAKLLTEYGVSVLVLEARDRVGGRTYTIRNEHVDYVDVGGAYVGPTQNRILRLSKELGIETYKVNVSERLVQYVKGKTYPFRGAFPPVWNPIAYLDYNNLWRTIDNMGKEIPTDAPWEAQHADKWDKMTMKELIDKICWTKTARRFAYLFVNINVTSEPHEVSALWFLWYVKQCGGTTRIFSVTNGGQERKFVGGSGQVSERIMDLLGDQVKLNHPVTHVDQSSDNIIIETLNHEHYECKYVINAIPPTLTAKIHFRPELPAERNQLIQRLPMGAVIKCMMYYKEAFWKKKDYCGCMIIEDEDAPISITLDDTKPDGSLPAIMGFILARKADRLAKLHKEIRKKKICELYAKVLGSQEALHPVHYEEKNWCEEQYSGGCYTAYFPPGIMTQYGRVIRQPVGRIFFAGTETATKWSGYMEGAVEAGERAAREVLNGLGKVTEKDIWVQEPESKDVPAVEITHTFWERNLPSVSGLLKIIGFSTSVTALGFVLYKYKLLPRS
The experiment in a line: In vitro fluorometric MAO-A inhibition assay (tyramine substrate, horseradish peroxidase coupling). Format: biochemical. The protocol: as §1

Each structure is given as a SMILES string. A value given as a limit tells only on which side of the number the result lay.

T1 sequence (O42275 24-633): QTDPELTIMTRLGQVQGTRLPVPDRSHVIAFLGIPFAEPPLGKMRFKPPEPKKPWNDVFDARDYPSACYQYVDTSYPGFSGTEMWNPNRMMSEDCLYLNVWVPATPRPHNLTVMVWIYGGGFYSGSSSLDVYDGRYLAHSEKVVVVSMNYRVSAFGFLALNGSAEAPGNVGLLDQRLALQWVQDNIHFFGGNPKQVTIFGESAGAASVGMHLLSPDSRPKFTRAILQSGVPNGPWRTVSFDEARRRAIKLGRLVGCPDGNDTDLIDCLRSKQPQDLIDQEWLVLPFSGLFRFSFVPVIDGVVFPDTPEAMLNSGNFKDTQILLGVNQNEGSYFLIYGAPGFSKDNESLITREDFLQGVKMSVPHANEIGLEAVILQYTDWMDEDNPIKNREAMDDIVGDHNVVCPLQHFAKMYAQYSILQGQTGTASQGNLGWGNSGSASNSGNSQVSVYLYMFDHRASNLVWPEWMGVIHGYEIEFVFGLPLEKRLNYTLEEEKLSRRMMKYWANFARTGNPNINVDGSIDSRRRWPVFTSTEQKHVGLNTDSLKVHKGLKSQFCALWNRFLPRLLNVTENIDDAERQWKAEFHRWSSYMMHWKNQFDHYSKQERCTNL

Broadly, the IC50 is the point on the concentration scale where inhibition reaches its midpoint. The low end stands for higher potency, the high end for lower potency. With `CCN(CC)c1ccc(/C=N/NC(=S)Nc2ccc(OC)cc2)c(OS(=O)(=O)c2ccc3ccccc3c2)c1` [Compound 5d, (E)‐5‐(Diethylamino)‐2‐({2‐[(4‐methoxyphenyl)carbamothioyl]hydrazono}methyl)phenyl naphthalene‐2‐sulfonate], the IC50 stood at 39.4 ± 2.87 nM in assay [1], 406 ± 8.24 nM in assay [2], 253 ± 10.5 nM in assay [3] and 171 ± 10.4 nM in assay [4]. Further, the Ki was found to be 32.2 ± 5.93 nM in assay [1] and 235 ± 15 nM in assay [3].
In the case of `CCN(CC)c1ccc(/C=N/NC(N)=S)c(OS(=O)(=O)c2ccc3ccccc3c2)c1` [Compound 5n, (E)‐2‐[(2‐Carbamothioylhydrazono)methyl]‐5‐(diethylamino)phenyl naphthalene‐2‐sulfonate], the IC50 in assay [1] is 47.7 ± 5.67 nM; in assay [2], 396 ± 8.09 nM; in assay [3] it was 308 ± 9.98 nM; in assay [4], 137 ± 6.55 nM. Moreover, the results for the Ki in assay [1] and in assay [3] were 42.4 ± 4.1 nM and 270 ± 13.5 nM, respectively.
On to `CCN(CC)c1ccc(/C=N/NC(=S)Nc2cccc(OC)c2)c(OS(=O)(=O)c2ccc3ccccc3c2)c1` [Compound 5k, (E)‐5‐(Diethylamino)‐2‐({2‐[(3‐methoxyphenyl)carbamothioyl]hydrazono}methyl)phenyl naphthalene‐2‐sulfonate], for which the IC50 was 116 ± 8.42 nM in assay [1], over 1000 nM in assay [2], 253 ± 9.15 nM in assay [3] and 145 ± 8.03 nM in assay [4]. Also, the Ki in assay [1] came out at 95.8 ± 9.54 nM; in assay [3], 205 ± 10.2 nM.
Consider `CCN(CC)c1ccc(/C=N/NC(=S)Nc2ccccc2C)c(OS(=O)(=O)c2ccc3ccccc3c2)c1` [Compound 5r, (E)‐5‐(Diethylamino)‐2‐{[2‐(o‐tolylcarbamothioyl)hydrazono]methyl}phenyl naphthalene‐2‐sulfonate], for which the concentration for half-maximal inhibition (IC50) in assay [1] turned out to be 27.4 ± 2.42 nM; in assay [2] it was 495 ± 8.36 nM; in assay [3], 294 ± 7.14 nM; in assay [4], 143 ± 6.78 nM. The Ki in assay [1] stood at 21.2 ± 1.05 nM; in assay [3] it was 249 ± 15.3 nM.
In the case of `CCN(CC)c1ccc(/C=N/NC(=S)NCCc2ccccc2)c(OS(=O)(=O)c2ccc3ccccc3c2)c1` [Compound 5t, (E)‐5‐(Diethylamino)‐2‐{[2‐(phenethylcarbamothioyl)hydrazono]methyl}phenyl naphthalene‐2‐sulfonate], the IC50 in assay [1] is 56.2 ± 4.58 nM; in assay [2], 289 ± 9.11 nM; in assay [3], 271 ± 6.9 nM; in assay [4], 139 ± 6.02 nM. Also, the Ki in assay [1] stood at 48.3 ± 7.32 nM; in assay [3], 227 ± 16.1 nM.
With `CCN(CC)c1ccc(/C=N/NC(=S)Nc2cccc([N+](=O)[O-])c2)c(OS(=O)(=O)c2ccc3ccccc3c2)c1` [Compound 5o, (E)‐5‐(Diethylamino)‐2‐({2‐[(3‐nitrophenyl)carbamothioyl]hydrazono}methyl)phenyl naphthalene‐2‐sulfonate], the IC50 is 18.9 ± 1.33 nM in assay [1], 267 ± 6.35 nM in assay [2], 192 ± 6.36 nM in assay [3] and 123 ± 7.01 nM in assay [4]. Moreover, the Ki in assay [1] is 14.2 ± 2.32 nM; in assay [3], 160 ± 9.01 nM.
In the case of `CCN(CC)c1ccc(/C=N/NC(=S)Nc2cccc(Cl)c2Cl)c(OS(=O)(=O)c2ccc3ccccc3c2)c1` [Compound 5a, (E)‐2‐({2‐[(2,3‐Dichlorophenyl)carbamothioyl]hydrazono}methyl)‐5‐(diethylamino)phenyl naphthalene‐2‐sulfonate], the IC50 in assay [1] came to 14.9 ± 1.54 nM; in assay [2], 391 ± 9.04 nM; in assay [3], 125 ± 9.13 nM; in assay [4], 104 ± 4.58 nM. Besides, the figures for the Ki in assay [1] and in assay [3] were 11.4 ± 3.06 nM and 101 ± 22.4 nM, respectively.
Regarding `CCN(CC)c1ccc(/C=N/NC(=S)Nc2ccccc2)c(OS(=O)(=O)c2ccc3ccccc3c2)c1` [Compound 5c, (E)‐5‐(Diethylamino)‐2‐{[2‐(phenylcarbamothioyl)hydrazono]methyl}phenyl naphthalene‐2‐sulfonate], the half-maximal inhibitory concentration (IC50) was 38.4 ± 5.03 nM in assay [1], 296 ± 6.01 nM in assay [2], 218 ± 8.41 nM in assay [3] and 189 ± 6.46 nM in assay [4]. Also, the Ki amounted to 25.4 ± 5.32 nM in assay [1] and 183 ± 15 nM in assay [3].
As for `CCN(CC)c1ccc(/C=N/NC(=S)Nc2ccc(F)cc2)c(OS(=O)(=O)c2ccc3ccccc3c2)c1` [Compound 5l, (E)‐5‐(Diethylamino)‐2‐({2‐[(4‐fluorophenyl)carbamothioyl]hydrazono}methyl)phenyl naphthalene‐2‐sulfonate], the IC50 in assay [1] came to 29.5 ± 2.68 nM; in assay [2] it was 277 ± 6.33 nM; in assay [3], 200 ± 6.88 nM; in assay [4], 112 ± 2.78 nM. Moreover, the Ki stood at 27.4 ± 3.45 nM in assay [1] and 182 ± 9.05 nM in assay [3].
In the case of `CCN(CC)c1ccc(/C=N/NC(=S)Nc2c(C)cccc2C)c(OS(=O)(=O)c2ccc3ccccc3c2)c1` [Compound 5j, (E)‐5‐(Diethylamino)‐2‐({2‐[(2,6‐dimethylphenyl)carbamothioyl]hydrazono}methyl)phenyl naphthalene‐2‐sulfonate], the IC50 in assay [1] is 40.6 ± 2.77 nM; in assay [2], 395 ± 8.35 nM; in assay [3], 265 ± 7.9 nM; in assay [4], 137 ± 6.21 nM. The Ki in assay [1] stood at 36.5 ± 5.23 nM; in assay [3], 228 ± 12.4 nM.
Consider `CCN(CC)c1ccc(/C=N/NC(=S)Nc2cccc(Cl)c2)c(OS(=O)(=O)c2ccc3ccccc3c2)c1` [Compound 5e, (E)‐2‐({2‐[(3‐chlorophenyl)carbamothioyl]hydrazono}methyl)‐5‐(diethylamino)phenyl naphthalene‐2‐sulfonate], for which the IC50 is 31 ± 4.16 nM in assay [1], over 1000 nM in assay [2], 208 ± 7.53 nM in assay [3] and 117 ± 7.33 nM in assay [4]. The Ki in assay [1] stood at 25.4 ± 3.32 nM; in assay [3], 195 ± 11.5 nM.
For `CCN(CC)c1ccc(/C=N/NC(=S)NCc2ccccc2)c(OS(=O)(=O)c2ccc3ccccc3c2)c1` [Compound 5s, (E)‐2‐{[2‐(Benzylcarbamothioyl)hydrazono]methyl}‐5‐(diethylamino)phenyl naphthalene‐2‐sulfonate], the IC50 in assay [1] was 71.4 ± 8.92 nM; in assay [2], 369 ± 12 nM; in assay [3], 220 ± 8.53 nM; in assay [4], 131 ± 5.34 nM. Moreover, the Ki in assay [1] stood at 63.9 ± 7.54 nM; in assay [3], 195 ± 13.5 nM.
